Experimental data as given in patent US10472346B2, “Potent gamma-secretase modulators” (The General Hospital Coporation, priority 2014, dated 2019).

The compounds below were run on Aβ42 (assay: Aβ42 IC50 assay (SHSYSY-APP cell-based screening, UCSD sandwich Aβ42 ELISA)).
Text: FIG. 8: Representative concentration response curves of Compound 1 using our primary and orthogonal medium throughput SHSYSY-APP cell-based screening assays (10). Compounds are first screened two times in triplicate in our UCSD sandwich Aβ42 ELISA on sequential days and the average of the two assays must be within 3-fold of each other before being entered into the CDD relational database. The UCSD sandwich ELISA assay can easily handle 20 compounds per week. Compounds with Aβ42 IC50 values <100 nM continue through the testing funnel. The Z′ score and the % CV for the UCSD Aβ42 sandwich ELISA assay are 0.8 and 4, respectively. For the Meso Scale triplex assay the Z′ scores are 0.7, 0.9 and 0.6 Aβ42, Aβ40 and Aβ38, respectively and the % CV's are 7, 2 and 1 for Aβ42, Aβ40 and Aβ38, respectively. Aβ total peptides are measured using a sandwich ELISA.
Tabular Results of A1142 Assays Conducted on Compounds of Examples 5-102. Assays are Aβ42 IC50 (nM).
`COc1cc([C@H](C)Nc2nnc(-c3ccc(-n4cnc(C)c4)c(OC)n3)cc2C)ccc1F` [Example 47, (S)—N-(1-(4-fluoro-3-methoxyphenyl)ethyl)-6-(6-methoxy-5-(4-methyl-1H-imidazol-1-yl)pyridin-2-yl)-4-methylpyridazin-3-amine] showed an IC50 of 15 nM.
`COc1nc(-c2cc(C)c(N[C@@H](C)c3cccc(C)c3)nn2)ccc1-n1cnc(C)c1` [Example 48, (S)-6-(6-methoxy-5-(4-methyl-1H-imidazol-1-yl)pyridin-2-yl)-4-methyl-N-(1-(m-tolyl)ethyl)pyridazin-3-amine] showed an IC50 of 6.3 nM.
`COc1nc(-c2cc(C)c(N[C@@H](C)c3cccc(C(F)(F)F)c3)nn2)ccc1-n1cnc(C)c1` [Example 49, (S)-6-(6-methoxy-5-(4-methyl-1H-imidazol-1-yl)pyridin-2-yl)-4-methyl-N-(1-(3-(trifluoromethyl)phenyl)ethyl)pyridazin-3-amine] gave an IC50 of 7 nM.
For `COc1nc(-c2cc(C)c(N[C@@H](C)c3ccc(F)c(C)c3)nn2)ccc1-n1cnc(C)c1` [Example 51, (S)—N-(1-(4-fluoro-3-methylphenyl)ethyl)-6-(6-methoxy-5-(4-methyl-1H-imidazol-1-yl)pyridin-2-yl)-4-methylpyridazin-3-amine], the IC50 was 8.3 nM.
With `COc1nc(-c2cc(C)c(N[C@@H](C)c3cc(F)c(F)c(F)c3)nn2)ccc1-n1cnc(C)c1` [Example 52, (S)-6-(6-methoxy-5-(4-methyl-1H-imidazol-1-yl)pyridin-2-yl)-4-methyl-N-(1-(3,4,5-trifluorophenyl)ethyl)pyridazin-3-amine] the IC50 was 5 nM.
Compound `COc1nc(-c2cc(C)c(N[C@@H](C)c3ccc(F)c(C(F)(F)F)c3)nn2)ccc1-n1cnc(C)c1` [Example 53, (S)—N-(1-(4-fluoro-3-(trifluoromethyl)phenyl)ethyl)-6-(6-methoxy-5-(4-methyl-1H-imidazol-1-yl)pyridin-2-yl)-4-methylpyridazin-3-amine] has an IC50 of 9.8 nM.
`COc1nc(-c2cc(C)c(N[C@@H](C)c3ccccc3C)nn2)ccc1-n1cnc(C)c1` [Example 55, (S)-6-(6-methoxy-5-(4-methyl-1H-imidazol-1-yl)pyridin-2-yl)-4-methyl-N-(1-(o-tolyl)ethyl)pyridazin-3-amine] was tested, and the IC50 was 3.3 nM.
With `COc1nc(-c2cc(C)c(N[C@@H](C)c3ccccc3C(F)(F)F)nn2)ccc1-n1cnc(C)c1` [Example 56, (S)-6-(6-methoxy-5-(4-methyl-1H-imidazol-1-yl)pyridin-2-yl)-4-methyl-N-(1-(2-(trifluoromethyl)phenyl)ethyl)pyridazin-3-amine] the IC50 was 3 nM.
In the case of `COc1nc(-c2cc(C)c(N[C@H](c3ccc(F)cc3)C(C)C)nn2)ccc1-n1cnc(C)c1` [Example 57, (S)—N-(1-(4-fluorophenyl)-2-methylpropyl)-6-(6-methoxy-5-(4-methyl-1H-imidazol-1-yl)pyridin-2-yl)-4-methylpyridazin-3-amine], the IC50 is reported as 4 nM.
In the case of `COc1nc(-c2cc(C)c(N[C@@H](C)C3CCCCC3)nn2)ccc1-n1cnc(C)c1` [Example 58, (S)—N-(1-cyclohexylethyl)-6-(6-methoxy-5-(4-methyl-1H-imidazol-1-yl)pyridin-2-yl)-4-methylpyridazin-3-amine], the IC50 is reported as 12 nM.
With `COc1nc(-c2cc(C)c(N[C@@H](C)c3ccncc3)nn2)ccc1-n1cnc(C)c1` [Example 59, (S)-6-(6-methoxy-5-(4-methyl-1H-imidazol-1-yl)pyridin-2-yl)-4-methyl-N-(1-(pyridin-4-yl)ethyl)pyridazin-3-amine] the IC50 was 778 nM.
In the case of `COc1nc(-c2cc(C)c(NC3(c4ccc(F)cc4)CC3)nn2)ccc1-n1cnc(C)c1` [Example 60, N-(1-(4-fluorophenyl)cyclopropyl)-6-(6-methoxy-5-(4-methyl-1H-imidazol-1-yl)pyridin-2-yl)-4-methylpyridazin-3-amine], the IC50 is reported as 12 nM.
`COc1nc(-c2cc(C)c(N[C@@H](C)C(C)C)nn2)ccc1-n1cnc(C)c1` [Example 61, (S)-6-(6-methoxy-5-(4-methyl-1H-imidazol-1-yl)pyridin-2-yl)-4-methyl-N-(3-methylbutan-2-yl)pyridazin-3-amine] gave an IC50 of 27 nM.
Work on `COC[C@H](C)Nc1nnc(-c2ccc(-n3cnc(C)c3)c(OC)n2)cc1C` [Example 62, (S)-6-(6-methoxy-5-(4-methyl-1H-imidazol-1-yl)pyridin-2-yl)-N-(1-methoxypropan-2-yl)-4-methylpyridazin-3-amine] yielded an IC50 of 2160 nM.
Compound `CC[C@H](C)Nc1nnc(-c2ccc(-n3cnc(C)c3)c(OC)n2)cc1C` [Example 63, (S)—N-(sec-butyl)-6-(6-methoxy-5-(4-methyl-1H-imidazol-1-yl)pyridin-2-yl)-4-methylpyridazin-3-amine] has an IC50 of 79 nM.
`COc1nc(-c2cc(C)c(N[C@@H](C)CO)nn2)ccc1-n1cnc(C)c1` [Example 64, (S)-2-((6-(6-methoxy-5-(4-methyl-1H-imidazol-1-yl)pyridin-2-yl)-4-methylpyridazin-3-yl)amino) propan-1-ol] showed an IC50 of over 10000 nM.
For `COc1nc(-c2cc(C)c(N[C@H](C)C(C)C)nn2)ccc1-n1cnc(C)c1` [Example 66, (R)-6-(6-methoxy-5-(4-methyl-1H-imidazol-1-yl)pyridin-2-yl)-4-methyl-N-(3-methylbutan-2-yl)pyridazin-3-amine], the IC50 was 53 nM.
In the case of `COc1nc(-c2cc(C)c(N[C@@H](C)c3ccccn3)nn2)ccc1-n1cnc(C)c1` [Example 67, (S)-6-(6-methoxy-5-(4-methyl-1H-imidazol-1-yl)pyridin-2-yl)-4-methyl-N-(1-(pyridin-2-yl)ethyl)pyridazin-3-amine], the IC50 is reported as 95 nM.
With `COc1nc(-c2cc(C)c(N[C@H](C)c3ccccc3)nn2)ccc1-n1cnc(C)c1` [Example 68, (R)-6-(6-methoxy-5-(4-methyl-1H-imidazol-1-yl)pyridin-2-yl)-4-methyl-N-(1-phenylethyl)pyridazin-3-amine] the IC50 was 80 nM.
In the case of `COc1nc(-c2cc(C)c(N[C@@H](C)c3ccc(F)cc3C)nn2)ccc1-n1cnc(C)c1` [Example 69, (S)—N-(1-(4-fluoro-2-methylphenyl)ethyl)-6-(6-methoxy-5-(4-methyl-1H-imidazol-1-yl)pyridin-2-yl)-4-methylpyridazin-3-amine], the IC50 is reported as 4.5 nM.
With `COc1nc(-c2cc(C)c(NC3CC3)nn2)ccc1-n1cnc(C)c1` [Example 70, N-cyclopropyl-6-(6-methoxy-5-(4-methyl-1H-imidazol-1-yl)pyridin-2-yl)-4-methylpyridazin-3-amine] the IC50 was 425 nM.
Work on `COc1nc(-c2cc(C)c(N[C@@H](CO)c3ccc(F)cc3)nn2)ccc1-n1cnc(C)c1` [Example 71, (R)-2-(4-fluorophenyl)-2-((6-(6-methoxy-5-(4-methyl-1H-imidazol-1-yl)pyridin-2-yl)-4-methylpyridazin-3-yl)amino)ethanol] yielded an IC50 of 22 nM.
`COc1nc(-c2cc(C)c(N[C@@H](C)c3c(F)cc(F)cc3F)nn2)ccc1-n1cnc(C)c1` [Example 75, (S)-6-(6-methoxy-5-(4-methyl-1H-imidazol-1-yl)pyridin-2-yl)-4-methyl-N-(1-(2,4,6-trifluorophenyl)ethyl)pyridazin-3-amine] showed an IC50 of 3.5 nM.
`COc1nc(-c2cc(C)c(N[C@@H](C)C(C)(C)C)nn2)ccc1-n1cnc(C)c1` [Example 76, (S)—N-(3,3-dimethylbutan-2-yl)-6-(6-methoxy-5-(4-methyl-1H-imidazol-1-yl)pyridin-2-yl)-4-methyl pyridazin-3-amine] was tested, and the IC50 was 29 nM.
`COc1nc(-c2cc(C)c(N[C@@H](C)c3ccc(C#N)cc3)nn2)ccc1-n1cnc(C)c1` [Example 77, (S)-4-(1-((6-(6-methoxy-5-(4-methyl-1H-imidazol-1-yl)pyridin-2-yl)-4-methylpyridazin-3-yl)amino)ethyl)benzonitrile] gave an IC50 of 27 nM.
Compound `COc1nc(-c2cc(C)c(NC3CCCC3)nn2)ccc1-n1cnc(C)c1` [Example 78, N-cyclopentyl-6-(6-methoxy-5-(4-methyl-1H-imidazol-1-yl)pyridin-2-yl)-4-methylpyridazin-3-amine] has an IC50 of 61 nM.
`CCC[C@H](Nc1nnc(-c2ccc(-n3cnc(C)c3)c(OC)n2)cc1C)c1ccc(F)cc1` [Example 79, (S)—N-(1-(4-fluorophenyl)butyl)-6-(6-methoxy-5-(4-methyl-1H-imidazol-1-yl)pyridin-2-yl)-4-methylpyridazin-3-amine] was tested, and the IC50 was 7.5 nM.
`COc1nc(-c2cc(C)c(N[C@H](CO)c3ccc(F)cc3)nn2)ccc1-n1cnc(C)c1` [Example 80, (S)-2-(4-fluorophenyl)-2-((6-(6-methoxy-5-(4-methyl-1H-imidazol-1-yl)pyridin-2-yl)-4-methylpyridazin-3-yl)amino)ethanol] gave an IC50 of 1100 nM.
`COc1nc(-c2cc(C)c(NC3CCCCC3)nn2)ccc1-n1cnc(C)c1` [Example 81, N-cyclohexyl-6-(6-methoxy-5-(4-methyl-1H-imidazol-1-yl)pyridin-2-yl)-4-methylpyridazin-3-amine] showed an IC50 of 27 nM.
With `COc1nc(-c2cc(C)c(N[C@@H](C)c3ccc(F)cc3C(F)(F)F)nn2)ccc1-n1cnc(C)c1` [Example 82, (S)—N-(1-(4-fluoro-2-(trifluoromethyl)phenyl)ethyl)-6-(6-methoxy-5-(4-methyl-1H-imidazol-1-yl)pyridin-2-yl)-4-methylpyridazin-3-amine] the IC50 was 3.5 nM.
Compound `COc1nc(-c2cc(C)c(N[C@@H]3C[C@H]3c3ccc(F)c(F)c3)nn2)ccc1-n1cnc(C)c1` [Example 83, N-((1R,2S)-2-(3,4-difluorophenyl)cyclopropyl)-6-(6-methoxy-5-(4-methyl-1H-imidazol-1-yl)pyridin-2-yl)-4-methylpyridazin-3-amine] has an IC50 of 27 nM.
